Patent publication EP0908457B1, “3-(1,2-benzisothiazol- and isoxazol-5-Y1)-2,4(1H,3H)-pyrimidinedione or thione and 3-(1,2-benzisothiazol- and isoxazol-5-y1)-4(3H)-pyrimidinone or thione herbicidal agents” (BASF AKTIENGESELLSCHAFT, priority 1997, dated 1999)

Experiments:
[1] = system: Echinochloa oryzoides (Ard.) Fritsch.; assay: Preemergence weed control under flooded paddy conditions, ECHORC (Watergrass (Calif.)); type: in vivo; settings: preemergence, flooded paddy, rated three to four weeks after treatment; also: meaning of each grade not given here
Cyperus iria [2] = assay: Preemergence weed control under flooded paddy conditions, CYPIR (Rice Flatsedge); type: in vivo; settings: preemergence, flooded paddy, rated three to four weeks after treatment; also: meaning of each grade not given here
[3] = system: Cyperus serotinus, Rottb.; assay: Preemergence weed control under flooded paddy conditions, CYPSE (Flatsedge); type: in vivo; settings: preemergence, rated three to four weeks after treatment; also: meaning of each grade not given here
[4] = system: Monochoria vaginalis, Presl.; assay: Preemergence weed control under flooded paddy conditions, MOOVA (Monochoria); type: in vivo; settings: preemergence, flooded paddy, rated three to four weeks after treatment; also: meaning of each grade not given here
Sagittaria pygmaea, L. [5] = assay: Preemergence weed control under flooded paddy conditions, SAGPY (Arrowhead (Pygmaea)); type: in vivo; settings: preemergence, flooded paddy, rated three to four weeks after treatment; also: meaning of each grade not given here
[6] = system: Echinochloa oryzoides (Ard.) Fritsch.; assay: Postemergence weed control under flooded paddy conditions, ECHORC (Watergrass (Calif.)); type: in vivo; settings: rated three to four weeks after treatment
Cyperus iria [7] = assay: Postemergence weed control under flooded paddy conditions, CYPIR (Rice Flatsedge); type: in vivo; settings: rated three to four weeks after treatment
[8] = system: Cyperus serotinus, Rottb.; assay: Postemergence weed control under flooded paddy conditions, CYPSE (Flatsedge); type: in vivo; settings: rated three to four weeks after treatment
[9] = system: Monochoria vaginalis, Presl.; assay: Postemergence weed control under flooded paddy conditions, MOOVA (Monochoria); type: in vivo; settings: rated three to four weeks after treatment
Sagittaria pygmaea, L. [10] = assay: Postemergence weed control under flooded paddy conditions, SAGPY (Arrowhead (Pygmaea)); type: in vivo; settings: rated three to four weeks after treatment
[11] = system: Oryza sativa, (L.) Tebonnet; assay: Rice tolerance to post-transplant applications under flooded paddy conditions (Example 187), ORYSAT (Rice, Tebonnet); settings: rated three to four weeks after treatment
[12] = system: Oryza sativa, (L.) Tebonnet; assay: Rice tolerance to post-transplant applications under flooded paddy conditions (Example 188), ORYSAT (Rice, Tebonnet); settings: rated three to four weeks after treatment

Compound: Cn1c(C(F)(F)F)cc(=O)n(-c2ccc3snc(-c4ccccc4)c3c2)c1=O [Example 4, 1-Methyl-3-(3-phenyl-1,2-benzisothiazol-5-yl)-6-(trifluoromethyl)-2,4(1H,3H)-pyrimidinedione]
- herbicidal effect rating, ECHORC ([1]; 0.0313 kg/ha): 9.0
- herbicidal effect rating, ECHORC ([1]; 0.0625 kg/ha): 9.0
- herbicidal effect rating, ECHORC ([1]; 0.1250 kg/ha): 9.0
- herbicidal effect rating, ECHORC ([1]; 0.2500 kg/ha): 9.0
- herbicidal effect rating, ECHORC ([1]; 0.5000 kg/ha): 9.0
- herbicidal effect rating, CYPIR (Cyperus iria [2]; 0.0313 kg/ha): 9.0
- herbicidal effect rating, CYPIR (Cyperus iria [2]; 0.0625 kg/ha): 9.0
- herbicidal effect rating, CYPIR (Cyperus iria [2]; 0.1250 kg/ha): 9.0
- herbicidal effect rating, CYPIR (Cyperus iria [2]; 0.2500 kg/ha): 9.0
- herbicidal effect rating, CYPIR (Cyperus iria [2]; 0.5000 kg/ha): 9.0
- herbicidal effect rating, CYPSE ([3]; 0.0625 kg/ha): 2.0
- herbicidal effect rating, CYPSE ([3]; 0.1250 kg/ha): 9.0
- herbicidal effect rating, CYPSE ([3]; 0.2500 kg/ha): 9.0
- herbicidal effect rating, CYPSE ([3]; 0.5000 kg/ha): 9.0
- herbicidal effect rating, MOOVA ([4]; 0.0313 kg/ha): 9.0
- herbicidal effect rating, MOOVA ([4]; 0.0625 kg/ha): 9.0
- herbicidal effect rating, MOOVA ([4]; 0.1250 kg/ha): 9.0
- herbicidal effect rating, MOOVA ([4]; 0.2500 kg/ha): 9.0
- herbicidal effect rating, MOOVA ([4]; 0.5000 kg/ha): 9.0
- herbicidal effect rating, SAGPY (Sagittaria pygmaea, L. [5]; 0.0313 kg/ha): 2.0
- herbicidal effect rating, SAGPY (Sagittaria pygmaea, L. [5]; 0.0625 kg/ha): 2.0
- herbicidal effect rating, SAGPY (Sagittaria pygmaea, L. [5]; 0.1250 kg/ha): 6.0
- herbicidal effect rating, SAGPY (Sagittaria pygmaea, L. [5]; 0.2500 kg/ha): 9.0
- herbicidal effect rating, SAGPY (Sagittaria pygmaea, L. [5]; 0.5000 kg/ha): 9.0
- herbicidal effect rating, ECHORC ([6]; Rate 0.0313 kg/ha): 7.0
- herbicidal effect rating, ECHORC ([6]; Rate 0.0625 kg/ha): 9.0
- herbicidal effect rating, ECHORC ([6]; Rate 0.1250 kg/ha): 9.0
- herbicidal effect rating, ECHORC ([6]; Rate 0.2500 kg/ha): 9.0
- herbicidal effect rating, ECHORC ([6]; Rate 0.5000 kg/ha): 9.0
- herbicidal effect rating, CYPIR (Cyperus iria [7]; Rate 0.0313 kg/ha): 8.0
- herbicidal effect rating, CYPIR (Cyperus iria [7]; Rate 0.0625 kg/ha): 9.0
- herbicidal effect rating, CYPIR (Cyperus iria [7]; Rate 0.1250 kg/ha): 9.0
- herbicidal effect rating, CYPIR (Cyperus iria [7]; Rate 0.2500 kg/ha): 9.0
- herbicidal effect rating, CYPIR (Cyperus iria [7]; Rate 0.5000 kg/ha): 9.0
- herbicidal effect rating, CYPSE ([8]; Rate 0.0313 kg/ha): 2.0
- herbicidal effect rating, CYPSE ([8]; Rate 0.0625 kg/ha): 4.0
- herbicidal effect rating, CYPSE ([8]; Rate 0.1250 kg/ha): 7.0
- herbicidal effect rating, CYPSE ([8]; Rate 0.2500 kg/ha): 7.0
- herbicidal effect rating, CYPSE ([8]; Rate 0.5000 kg/ha): 9.0
- herbicidal effect rating, MOOVA ([9]; Rate 0.0313 kg/ha): 8.0
- herbicidal effect rating, MOOVA ([9]; Rate 0.0625 kg/ha): 9.0
- herbicidal effect rating, MOOVA ([9]; Rate 0.1250 kg/ha): 9.0
- herbicidal effect rating, MOOVA ([9]; Rate 0.2500 kg/ha): 9.0
- herbicidal effect rating, MOOVA ([9]; Rate 0.5000 kg/ha): 9.0
- herbicidal effect rating, SAGPY (Sagittaria pygmaea, L. [10]; Rate 0.0313 kg/ha): 3.0
- herbicidal effect rating, SAGPY (Sagittaria pygmaea, L. [10]; Rate 0.0625 kg/ha): 2.0
- herbicidal effect rating, SAGPY (Sagittaria pygmaea, L. [10]; Rate 0.1250 kg/ha): 6.0
- herbicidal effect rating, SAGPY (Sagittaria pygmaea, L. [10]; Rate 0.2500 kg/ha): 9.0
- herbicidal effect rating, SAGPY (Sagittaria pygmaea, L. [10]; Rate 0.5000 kg/ha): 9.0
- herbicidal effect rating, ORYSAT (rice tolerance) ([11]; 0.0313 kg/ha): 4.0
- herbicidal effect rating, ORYSAT (rice tolerance) ([11]; 0.0625 kg/ha): 7.0
- herbicidal effect rating, ORYSAT (rice tolerance) ([11]; 0.1250 kg/ha): 7.0
- herbicidal effect rating, ORYSAT (rice tolerance) ([11]; 0.2500 kg/ha): 8.0
- herbicidal effect rating, ORYSAT (rice tolerance) ([11]; 0.5000 kg/ha): 8.0
- herbicidal effect rating, ORYSAT (rice tolerance) ([12]; Rate 0.0313 kg/ha): 3.0
- herbicidal effect rating, ORYSAT (rice tolerance) ([12]; Rate 0.0625 kg/ha): 4.0
- herbicidal effect rating, ORYSAT (rice tolerance) ([12]; Rate 0.1250 kg/ha): 7.0
- herbicidal effect rating, ORYSAT (rice tolerance) ([12]; Rate 0.2500 kg/ha): 8.0
- herbicidal effect rating, ORYSAT (rice tolerance) ([12]; Rate 0.5000 kg/ha): 8.0

Compound: CCc1ccc(-c2nsc3ccc(-n4c(=O)cc(C(F)(F)F)n(C)c4=O)cc23)cc1 [Example 5, 3-[3-(p-Ethylphenyl)-1,2-benzisothiazol-5-yl]-1-methyl-6-(trifluoromethyl)-2,4(1H,3H)-pyrimidinedione]
- herbicidal effect rating, ECHORC ([1]; 0.0313 kg/ha): 9.0
- herbicidal effect rating, ECHORC ([1]; 0.0625 kg/ha): 9.0
- herbicidal effect rating, ECHORC ([1]; 0.1250 kg/ha): 9.0
- herbicidal effect rating, ECHORC ([1]; 0.2500 kg/ha): 9.0
- herbicidal effect rating, ECHORC ([1]; 0.5000 kg/ha): 9.0
- herbicidal effect rating, CYPIR (Cyperus iria [2]; 0.0313 kg/ha): 9.0
- herbicidal effect rating, CYPIR (Cyperus iria [2]; 0.0625 kg/ha): 9.0
- herbicidal effect rating, CYPIR (Cyperus iria [2]; 0.1250 kg/ha): 9.0
- herbicidal effect rating, CYPIR (Cyperus iria [2]; 0.2500 kg/ha): 9.0
- herbicidal effect rating, CYPIR (Cyperus iria [2]; 0.5000 kg/ha): 9.0
- herbicidal effect rating, CYPSE ([3]; 0.0313 kg/ha): 0.0
- herbicidal effect rating, CYPSE ([3]; 0.0625 kg/ha): 2.0
- herbicidal effect rating, CYPSE ([3]; 0.1250 kg/ha): 6.0
- herbicidal effect rating, CYPSE ([3]; 0.2500 kg/ha): 8.0
- herbicidal effect rating, CYPSE ([3]; 0.5000 kg/ha): 7.0
- herbicidal effect rating, MOOVA ([4]; 0.0313 kg/ha): 9.0
- herbicidal effect rating, MOOVA ([4]; 0.0625 kg/ha): 9.0
- herbicidal effect rating, MOOVA ([4]; 0.1250 kg/ha): 9.0
- herbicidal effect rating, MOOVA ([4]; 0.2500 kg/ha): 9.0
- herbicidal effect rating, MOOVA ([4]; 0.5000 kg/ha): 9.0
- herbicidal effect rating, SAGPY (Sagittaria pygmaea, L. [5]; 0.0313 kg/ha): 0.0
- herbicidal effect rating, SAGPY (Sagittaria pygmaea, L. [5]; 0.0625 kg/ha): 0.0
- herbicidal effect rating, SAGPY (Sagittaria pygmaea, L. [5]; 0.1250 kg/ha): 2.0
- herbicidal effect rating, SAGPY (Sagittaria pygmaea, L. [5]; 0.2500 kg/ha): 7.0
- herbicidal effect rating, SAGPY (Sagittaria pygmaea, L. [5]; 0.5000 kg/ha): 7.0
- herbicidal effect rating, ECHORC ([6]; Rate 0.0313 kg/ha): 2.0
- herbicidal effect rating, ECHORC ([6]; Rate 0.0625 kg/ha): 7.0
- herbicidal effect rating, ECHORC ([6]; Rate 0.1250 kg/ha): 6.0
- herbicidal effect rating, ECHORC ([6]; Rate 0.2500 kg/ha): 9.0
- herbicidal effect rating, ECHORC ([6]; Rate 0.5000 kg/ha): 9.0
- herbicidal effect rating, CYPIR (Cyperus iria [7]; Rate 0.0313 kg/ha): 9.0
- herbicidal effect rating, CYPIR (Cyperus iria [7]; Rate 0.0625 kg/ha): 9.0
- herbicidal effect rating, CYPIR (Cyperus iria [7]; Rate 0.1250 kg/ha): 9.0
- herbicidal effect rating, CYPIR (Cyperus iria [7]; Rate 0.2500 kg/ha): 9.0
- herbicidal effect rating, CYPIR (Cyperus iria [7]; Rate 0.5000 kg/ha): 9.0
- herbicidal effect rating, CYPSE ([8]; Rate 0.0313 kg/ha): 0.0
- herbicidal effect rating, CYPSE ([8]; Rate 0.0625 kg/ha): 0.0
- herbicidal effect rating, CYPSE ([8]; Rate 0.1250 kg/ha): 0.0
- herbicidal effect rating, CYPSE ([8]; Rate 0.2500 kg/ha): 0.0
- herbicidal effect rating, CYPSE ([8]; Rate 0.5000 kg/ha): 0.0
- herbicidal effect rating, MOOVA ([9]; Rate 0.0313 kg/ha): 9.0
- herbicidal effect rating, MOOVA ([9]; Rate 0.0625 kg/ha): 9.0
- herbicidal effect rating, MOOVA ([9]; Rate 0.1250 kg/ha): 9.0
- herbicidal effect rating, MOOVA ([9]; Rate 0.2500 kg/ha): 9.0
- herbicidal effect rating, MOOVA ([9]; Rate 0.5000 kg/ha): 9.0
- herbicidal effect rating, SAGPY (Sagittaria pygmaea, L. [10]; Rate 0.0313 kg/ha): 2.0
- herbicidal effect rating, SAGPY (Sagittaria pygmaea, L. [10]; Rate 0.0625 kg/ha): 2.0
- herbicidal effect rating, SAGPY (Sagittaria pygmaea, L. [10]; Rate 0.1250 kg/ha): 4.0
- herbicidal effect rating, SAGPY (Sagittaria pygmaea, L. [10]; Rate 0.2500 kg/ha): 6.0
- herbicidal effect rating, SAGPY (Sagittaria pygmaea, L. [10]; Rate 0.5000 kg/ha): 8.0
- herbicidal effect rating, ORYSAT (rice tolerance) ([11]; 0.0313 kg/ha): 2.0
- herbicidal effect rating, ORYSAT (rice tolerance) ([11]; 0.0625 kg/ha): 3.0
- herbicidal effect rating, ORYSAT (rice tolerance) ([11]; 0.1250 kg/ha): 4.0
- herbicidal effect rating, ORYSAT (rice tolerance) ([11]; 0.2500 kg/ha): 5.0
- herbicidal effect rating, ORYSAT (rice tolerance) ([11]; 0.5000 kg/ha): 7.0
- herbicidal effect rating, ORYSAT (rice tolerance) ([12]; Rate 0.0313 kg/ha): 2.0
- herbicidal effect rating, ORYSAT (rice tolerance) ([12]; Rate 0.0625 kg/ha): 2.0
- herbicidal effect rating, ORYSAT (rice tolerance) ([12]; Rate 0.1250 kg/ha): 4.0
- herbicidal effect rating, ORYSAT (rice tolerance) ([12]; Rate 0.2500 kg/ha): 6.0
- herbicidal effect rating, ORYSAT (rice tolerance) ([12]; Rate 0.5000 kg/ha): 8.0
